Values quoted from earlier work, collected in patent US8633150B2, “Methods for inducing sustained immune response” (TNI Biotech, Inc., priority 2001, dated 2014).
Where two headings read alike, the source gives them in different places.

What was measured:
[1] = Bihari
[2] = normal volunteers, HIV positive, and cancer patients; Plotnikoff, et al., 1997

## CSCC[C@H](NC(=O)[C@H](Cc1ccccc1)NC(=O)CNC(=O)CNC(=O)[C@@H](N)Cc1ccc(O)cc1)C(=O)O [met-enkephalin, methionine enkephalin]
[1]; et al., 1991
  half-life in plasma: approximately 2 minutes
[1]; et al., 1991, listed as Met-enkelphalin
  half-life in plasma: approximately two
[2]
  toxicity in clinical studies: no major toxicity
